Assay results taken from patent US12290596B2, “Compositions and methods for the treatment of opioid overdose” (priority 2021, dated 2025).

Test: Two-period crossover pharmacokinetics of nalmefene 3 mg IN vs 1.0 mg IM (Example 12)
Settings: for AUC(0-inf): AUCinf; for half-life: T1/2, Treatment B: IM 1.0 mg nalmefene hydrochloride; for Vd/F: Vz/F
[1] = Treatment A: 3.0 mg nalmefene hydrochloride IN, plasma, Max, n 66
[2] = Treatment A: 3.0 mg nalmefene hydrochloride IN, plasma, Min, n 66
[3] = Treatment B: 1.0 mg nalmefene IM (gluteal muscle), plasma, Max, n 68
[4] = Treatment B: 1.0 mg nalmefene IM (gluteal muscle), plasma, Min, n 68
[5] = Treatment B: IM 1.0 mg nalmefene hydrochloride, plasma, Geo. Mean, n=68
[6] = Treatment B: IM 1.0 mg nalmefene hydrochloride, plasma, Max, n=68
[7] = Treatment B: IM 1.0 mg nalmefene hydrochloride, plasma, Mean, n=68
[8] = Treatment B: IM 1.0 mg nalmefene hydrochloride, plasma, Median, n=68
[9] = Treatment B: IM 1.0 mg nalmefene hydrochloride, plasma, Min, n=68
[10] = human, plasma, im, 1 mg, GeoMean, Treatment B 1.0 mg IM (Ref)
[11] = human, plasma, im, 1 mg, Treatment B: IM 1.0 mg nalmefene hydrochloride, plasma, Geo. Mean, n=68
[12] = human, plasma, im, 1 mg, Treatment B: IM 1.0 mg nalmefene hydrochloride, plasma, Median, n=68
[13] = human, plasma, im, 1 mg, Treatment B: IM 1.0 mg nalmefene hydrochloride, plasma, Mean, n=68

C=C1CC[C@@]2(O)[C@H]3Cc4ccc(O)c5c4[C@@]2(CCN3CC2CC2)[C@H]1O5 [Nalmefene, 17-cyclopropylmethyl-4,5α-epoxy-6-methylenemorphinan-3,14-diol]
Plasma concentrations compared to an intramuscular injection (3 mg IN vs 1.0 mg IM, p<0.0001): significantly higher plasma concentrations
AUC0-5 min [1]: 0.588 ng·h/mL
AUC0-10 min [1]: 2.78 ng·h/mL
AUC0-15 min [1]: 5.03 ng·h/mL
AUC0-20 min [1]: 6.79 ng·h/mL
AUC0-30 min [1]: 9.16 ng·h/mL
AUC0-[…] [1]: 0.155 ng·h/mL
AUC0-10 min [2]: 0.0815 ng·h/mL
AUC0-15 min [2]: 0.196 ng·h/mL
AUC0-30 min [2]: 0.802 ng·h/mL
AUC0-10 min [3]: 0.631 ng·h/mL
AUC0-15 min [3]: 1.05 ng·h/mL
AUC0-20 min [3]: 1.33 ng·h/mL
AUC0-30 min [3]: 1.77 ng·h/mL
AUC0-[…] [3]: 0.0249 ng·h/mL
AUC0-15 min [4]: 0.0218 ng·h/mL
AUC0-20 min [4]: 0.0402 ng·h/mL
AUC0-30 min [4]: 0.0845 ng·h/mL
AUCExtrap [5]: 3.94%
CL/F [5]: 59.6 L/h
Kel [5]: 0.0667 h⁻¹
Tlast [5]: 48.0 h
AUCExtrap [6]: 13.3%
AUClast [6]: 24.2 ng·h/mL
CL/F [6]: 91.8 L/h
Kel [6]: 0.0968 h⁻¹
AUCExtrap [7]: 4.50%
CL/F [7]: 60.7 L/h
Kel [7]: 0.0677 h⁻¹
Tlast [7]: 48.0 h
AUCExtrap [8]: 3.86%
CL/F [8]: 58.7 L/h
Kel [8]: 0.0695 h⁻¹
Tlast [8]: 48.0 h
AUCExtrap [9]: 1.13%
AUClast [9]: 10.5 ng·h/mL
CL/F [9]: 40.0 L/h
Kel [9]: 0.0394 h⁻¹
Tlast [9]: 48.0 h
AUC(0-t) (human, plasma, im, 1 mg, AUC0-5 min, GeoMean, Treatment B 1.0 mg IM (Ref)): 0.01 ng·h/mL
AUC(0-t) (human, plasma, im, 1 mg, AUC0-5 min, Treatment B: 1.0 mg nalmefene IM (gluteal muscle), plasma, Geo. Mean, n 68): 0.0102 ng·h/mL
AUC(0-t) (human, plasma, im, 1 mg, AUC0-5 min, Treatment B: 1.0 mg nalmefene IM (gluteal muscle), plasma, Mean, n 68): 0.0181 ng·h/mL
AUC(0-t) (human, plasma, im, 1 mg, AUC0-10 min, GeoMean, Treatment B 1.0 mg IM (Ref)): 0.064 ng·h/mL
AUC(0-t) (human, plasma, im, 1 mg, AUC0-10 min, Treatment B: 1.0 mg nalmefene IM (gluteal muscle), plasma, Geo. Mean, n 68): 0.0639 ng·h/mL
AUC(0-t) (human, plasma, im, 1 mg, AUC0-10 min, Treatment B: 1.0 mg nalmefene IM (gluteal muscle), plasma, Mean, n 68): 0.0994 ng·h/mL
AUC(0-t) (human, plasma, im, 1 mg, AUC0-10 min, Treatment B: 1.0 mg nalmefene IM (gluteal muscle), plasma, Median, n 68): 0.0583 ng·h/mL
AUC(0-t) (human, plasma, im, 1 mg, AUC0-15 min, GeoMean, Treatment B 1.0 mg IM (Ref)): 0.142 ng·h/mL
AUC(0-t) (human, plasma, im, 1 mg, AUC0-15 min, Treatment B: 1.0 mg nalmefene IM (gluteal muscle), plasma, Geo. Mean, n 68): 0.142 ng·h/mL
AUC(0-t) (human, plasma, im, 1 mg, AUC0-15 min, Treatment B: 1.0 mg nalmefene IM (gluteal muscle), plasma, Mean, n 68): 0.2 ng·h/mL
AUC(0-t) (human, plasma, im, 1 mg, AUC0-15 min, Treatment B: 1.0 mg nalmefene IM (gluteal muscle), plasma, Median, n 68): 0.143 ng·h/mL
AUC(0-t) (human, plasma, im, 1 mg, AUC0-20 min, GeoMean, Treatment B 1.0 mg IM (Ref)): 0.228 ng·h/mL
AUC(0-t) (human, plasma, im, 1 mg, AUC0-20 min, Treatment B: 1.0 mg nalmefene IM (gluteal muscle), plasma, Geo. Mean, n 68): 0.228 ng·h/mL
AUC(0-t) (human, plasma, im, 1 mg, AUC0-20 min, Treatment B: 1.0 mg nalmefene IM (gluteal muscle), plasma, Mean, n 68): 0.299 ng·h/mL
AUC(0-t) (human, plasma, im, 1 mg, AUC0-20 min, Treatment B: 1.0 mg nalmefene IM (gluteal muscle), plasma, Median, n 68): 0.228 ng·h/mL
AUC(0-t) (human, plasma, im, 1 mg, AUC0-30 min, GeoMean, Treatment B 1.0 mg IM (Ref)): 0.405 ng·h/mL
AUC(0-t) (human, plasma, im, 1 mg, AUC0-30 min, Treatment B: 1.0 mg nalmefene IM (gluteal muscle), plasma, Geo. Mean, n 68): 0.405 ng·h/mL
AUC(0-t) (human, plasma, im, 1 mg, AUC0-30 min, Treatment B: 1.0 mg nalmefene IM (gluteal muscle), plasma, Mean, n 68): 0.491 ng·h/mL
AUC(0-t) (human, plasma, im, 1 mg, AUC0-30 min, Treatment B: 1.0 mg nalmefene IM (gluteal muscle), plasma, Median, n 68): 0.389 ng·h/mL
AUC(0-t) (human, plasma, im, 1 mg, AUCLast, GeoMean, Treatment B 1.0 mg IM (Ref)): 16 ng·h/mL
AUC(0-inf) [10]: 16.8 ng·h/mL
AUC(0-inf) [11]: 16.8 ng·h/mL
AUC(0-inf) [12]: 17 ng·h/mL
AUC(0-t) (human, plasma, im, 1 mg, AUClast, Treatment B: IM 1.0 mg nalmefene hydrochloride, plasma, Geo. Mean, n=68): 16 ng·h/mL
AUC(0-t) (human, plasma, im, 1 mg, AUClast, Treatment B: IM 1.0 mg nalmefene hydrochloride, plasma, Mean, n=68): 16.3 ng·h/mL
AUC(0-t) (human, plasma, im, 1 mg, AUClast, Treatment B: IM 1.0 mg nalmefene hydrochloride, plasma, Median, n=68): 15.9 ng·h/mL
Cmax [10]: 1.5 ng/mL
Cmax [11]: 1.5 ng/mL
Cmax [13]: 1.77 ng/mL
Cmax [12]: 1.52 ng/mL
half-life (human, plasma, im, 1 mg, plasma, Geo. Mean, n=68): 10.4 h
half-life (human, plasma, im, 1 mg, plasma, Mean, n=68): 10.6 h
half-life (human, plasma, im, 1 mg, plasma, Median, n=68): 9.98 h
Tmax (human, plasma, im, 1 mg, Tmax, Treatment B: IM 1.0 mg nalmefene hydrochloride, plasma, Geo. Mean, n=68): 0.603 h
Vd/F [11]: 894 L
Vd/F [13]: 916 L
concentration at 0 h (human, plasma, intramuscular, 1 mg, Mean plasma concentration, Treatment B 1.0 mg IM, 0.00 h): 0.00352 ng/mL
concentration at 0.5 h (human, plasma, intramuscular, 1 mg, Mean plasma concentration, Treatment B 1.0 mg IM, 0.500 h): 1.11 ng/mL
concentration at 2 h (human, plasma, intramuscular, 1 mg, Mean plasma concentration, Treatment B 1.0 mg IM, 2.00 h): 0.972 ng/mL
